Data taken from PubChem BioAssay (NCI).
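All cell lines were grown in 96-well plates and treated with compound for 48 hours. GI50 = concentration required for 50% inhibition of growth. TGI denotes the concentration required for complete inhibition of growth.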

Experiments:
Assay in all cases: inhibition of tumour cell growth, NCI panel, 48 h
SN12C renal = test system: SN12C renal
MDA-MB-231 breast = test system: MDA-MB-231 breast
ACHN renal = test system: ACHN renal
SNB-19 CNS = test system: SNB-19 CNS
SK-MEL-28 melanoma = test system: SK-MEL-28 melanoma
HT29 colon = test system: HT29 colon
NCI-H522 lung = test system: NCI-H522 lung
MALME-3M melanoma = test system: MALME-3M melanoma
NCI-H23 lung = test system: NCI-H23 lung
SK-OV-3 ovarian = test system: SK-OV-3 ovarian
IGROV1 ovarian = test system: IGROV1 ovarian
CCRF-CEM leukemia = test system: CCRF-CEM leukemia
UO-31 renal = test system: UO-31 renal
786-0 renal = test system: 786-0 renal
PC-3 prostate = test system: PC-3 prostate
TK-10 renal = test system: TK-10 renal
EKVX NSCLC = test system: EKVX NSCLC
HCC-2998 colon = test system: HCC-2998 colon
SK-MEL-2 melanoma = test system: SK-MEL-2 melanoma
COLO 205 colon = test system: COLO 205 colon
OVCAR-5 ovarian = test system: OVCAR-5 ovarian
NCI-H460 lung = test system: NCI-H460 lung
MDA-MB-435 = test system: MDA-MB-435
SNB-75 CNS = test system: SNB-75 CNS
LOX IMVI melanoma = test system: LOX IMVI melanoma
NCI-H226 lung = test system: NCI-H226 lung
SR leukemia = test system: SR leukemia
HS 578T breast = test system: HS 578T breast
A549 NSCLC = test system: A549 NSCLC
M14 melanoma = test system: M14 melanoma
HCT-116 colon = test system: HCT-116 colon
UACC-257 melanoma = test system: UACC-257 melanoma
UACC-62 melanoma = test system: UACC-62 melanoma
DU-145 prostate = test system: DU-145 prostate
HCT-15 colon = test system: HCT-15 colon
MCF7 breast = test system: MCF7 breast
HOP-62 NSCLC = test system: HOP-62 NSCLC
T-47D breast = test system: T-47D breast
SW-620 colon = test system: SW-620 colon
NCI/ADR-RES ovarian = test system: NCI/ADR-RES ovarian
KM12 colon = test system: KM12 colon
HL-60(TB) leukemia = test system: HL-60(TB) leukemia
K-562 leukemia = test system: K-562 leukemia
OVCAR-3 ovarian = test system: OVCAR-3 ovarian
CAKI-1 renal = test system: CAKI-1 renal
BT-549 breast = test system: BT-549 breast
OVCAR-4 ovarian = test system: OVCAR-4 ovarian
SF-268 CNS = test system: SF-268 CNS
MOLT-4 leukemia = test system: MOLT-4 leukemia
A498 renal = test system: A498 renal
SF-295 CNS = test system: SF-295 CNS
HOP-92 NSCLC = test system: HOP-92 NSCLC
OVCAR-8 ovarian = test system: OVCAR-8 ovarian
SF-539 CNS = test system: SF-539 CNS
SK-MEL-5 melanoma = test system: SK-MEL-5 melanoma

CCN(CC)c1ccc(/C=C2\SC(=O)C(Nc3nnc(-c4cccnc4SCc4ccccc4)o3)C2=O)cc1 (stereo not given)
GI50 (SN12C renal): 4.11 µM
TGI (SN12C renal): > 100 µM
GI50 (MDA-MB-231 breast): 2.34 µM
TGI (MDA-MB-231 breast): 10.4 µM
GI50 (ACHN renal): 6.78 µM
TGI (ACHN renal): > 100 µM
GI50 (SNB-19 CNS): 6.59 µM
TGI (SNB-19 CNS): > 100 µM
GI50 (SK-MEL-28 melanoma): 5.29 µM
TGI (SK-MEL-28 melanoma): 36.7 µM
GI50 (HT29 colon): 3.63 µM
TGI (HT29 colon): > 100 µM
GI50 (NCI-H522 lung): 3.15 µM
TGI (NCI-H522 lung): 9.67 µM
GI50 (MALME-3M melanoma): 4.12 µM
TGI (MALME-3M melanoma): > 100 µM
GI50 (NCI-H23 lung): 2.58 µM
TGI (NCI-H23 lung): 8.62 µM
GI50 (SK-OV-3 ovarian): 3.34 µM
TGI (SK-OV-3 ovarian): 19.9 µM
GI50 (IGROV1 ovarian): 10.9 µM
TGI (IGROV1 ovarian): 56.8 µM
GI50 (CCRF-CEM leukemia): 3.37 µM
TGI (CCRF-CEM leukemia): > 100 µM
GI50 (UO-31 renal): 5.42 µM
TGI (UO-31 renal): > 100 µM
GI50 (786-0 renal): 9.51 µM
TGI (786-0 renal): > 100 µM
GI50 (PC-3 prostate): 3.34 µM
TGI (PC-3 prostate): > 100 µM
GI50 (TK-10 renal): 22.3 µM
TGI (TK-10 renal): > 100 µM
GI50 (EKVX NSCLC): 6.72 µM
TGI (EKVX NSCLC): > 100 µM
GI50 (HCC-2998 colon): 2.99 µM
TGI (HCC-2998 colon): 10.4 µM
GI50 (SK-MEL-2 melanoma): 10.1 µM
TGI (SK-MEL-2 melanoma): 53.2 µM
GI50 (COLO 205 colon): 2.19 µM
TGI (COLO 205 colon): 4.65 µM
GI50 (OVCAR-5 ovarian): 5.1 µM
TGI (OVCAR-5 ovarian): > 100 µM
GI50 (NCI-H460 lung): 3.21 µM
TGI (NCI-H460 lung): > 100 µM
GI50 (MDA-MB-435): 2.18 µM
TGI (MDA-MB-435): 5.81 µM
GI50 (SNB-75 CNS): 2.56 µM
TGI (SNB-75 CNS): 42.2 µM
GI50 (LOX IMVI melanoma): 3.76 µM
TGI (LOX IMVI melanoma): > 100 µM
GI50 (NCI-H226 lung): 9.41 µM
TGI (NCI-H226 lung): 57.6 µM
GI50 (SR leukemia): 3.29 µM
TGI (SR leukemia): > 100 µM
GI50 (HS 578T breast): 2.61 µM
TGI (HS 578T breast): 8.77 µM
GI50 (A549 NSCLC): 3.98 µM
TGI (A549 NSCLC): > 100 µM
GI50 (M14 melanoma): 3.24 µM
TGI (M14 melanoma): 13.5 µM
GI50 (HCT-116 colon): 3.53 µM
TGI (HCT-116 colon): > 100 µM
GI50 (UACC-257 melanoma): 16.6 µM
TGI (UACC-257 melanoma): > 100 µM
GI50 (UACC-62 melanoma): 4.2 µM
TGI (UACC-62 melanoma): 27.4 µM
GI50 (DU-145 prostate): 2.76 µM
TGI (DU-145 prostate): 6.92 µM
GI50 (HCT-15 colon): 3.83 µM
TGI (HCT-15 colon): > 100 µM
GI50 (MCF7 breast): 3.01 µM
TGI (MCF7 breast): > 100 µM
GI50 (HOP-62 NSCLC): 4.32 µM
TGI (HOP-62 NSCLC): 24.9 µM
GI50 (T-47D breast): 12.8 µM
TGI (T-47D breast): 89.7 µM
GI50 (SW-620 colon): 3.94 µM
TGI (SW-620 colon): > 100 µM
GI50 (NCI/ADR-RES ovarian): 3.7 µM
TGI (NCI/ADR-RES ovarian): > 100 µM
GI50 (KM12 colon): 3.64 µM
TGI (KM12 colon): 28.4 µM
GI50 (HL-60(TB) leukemia): 3.88 µM
TGI (HL-60(TB) leukemia): > 100 µM
GI50 (K-562 leukemia): 3.24 µM
TGI (K-562 leukemia): > 100 µM
GI50 (OVCAR-3 ovarian): 2.77 µM
TGI (OVCAR-3 ovarian): 6.29 µM
GI50 (CAKI-1 renal): 4.43 µM
TGI (CAKI-1 renal): > 100 µM
GI50 (BT-549 breast): 12 µM
TGI (BT-549 breast): 59.3 µM
GI50 (OVCAR-4 ovarian): 5.19 µM
TGI (OVCAR-4 ovarian): > 100 µM
GI50 (SF-268 CNS): 6.8 µM
TGI (SF-268 CNS): > 100 µM
GI50 (MOLT-4 leukemia): 3.53 µM
TGI (MOLT-4 leukemia): > 100 µM
GI50 (A498 renal): 1.76 µM
TGI (A498 renal): 8.2 µM
GI50 (SF-295 CNS): 3.2 µM
TGI (SF-295 CNS): 85.6 µM
GI50 (HOP-92 NSCLC): 2.58 µM
TGI (HOP-92 NSCLC): 35 µM
GI50 (OVCAR-8 ovarian): 4 µM
TGI (OVCAR-8 ovarian): > 100 µM
GI50 (SF-539 CNS): 3.21 µM
TGI (SF-539 CNS): 15.5 µM
GI50 (SK-MEL-5 melanoma): 3.85 µM
TGI (SK-MEL-5 melanoma): 14.4 µM
